Assay results taken from USRE40233E1, “Viral variants and methods for detecting same” (Melbourne Health, priority 1996, dated 2008).

Tests used:
[1] = tested on: HBV DNA polymerase-reverse transcriptase; conditions: in vitro; cited from earlier work
duck HBV = conditions: in vitro; cited from earlier work
HBV DNA polymerase [2] = biological target: T1, HBV DNA polymerase (Hepatitis B virus genotype D subtype ayw, UniProt P03156, L515M/V508L); test: endogenous HBV DNA polymerase assay, PCV-TP sensitivity; type: biochemical; conditions: 100 μmol/L PCV-TP, serum HBV of patient A
T1 construct: Small aliquots of the suspension were assayed for endogenous HBV DNA polymerase activity; from tissue; host or cells: patient serum; virions pelleted through a 20% sucrose cushion and treated with Triton X-100
T1 sequence (P03156 whole entry V508L/L515M): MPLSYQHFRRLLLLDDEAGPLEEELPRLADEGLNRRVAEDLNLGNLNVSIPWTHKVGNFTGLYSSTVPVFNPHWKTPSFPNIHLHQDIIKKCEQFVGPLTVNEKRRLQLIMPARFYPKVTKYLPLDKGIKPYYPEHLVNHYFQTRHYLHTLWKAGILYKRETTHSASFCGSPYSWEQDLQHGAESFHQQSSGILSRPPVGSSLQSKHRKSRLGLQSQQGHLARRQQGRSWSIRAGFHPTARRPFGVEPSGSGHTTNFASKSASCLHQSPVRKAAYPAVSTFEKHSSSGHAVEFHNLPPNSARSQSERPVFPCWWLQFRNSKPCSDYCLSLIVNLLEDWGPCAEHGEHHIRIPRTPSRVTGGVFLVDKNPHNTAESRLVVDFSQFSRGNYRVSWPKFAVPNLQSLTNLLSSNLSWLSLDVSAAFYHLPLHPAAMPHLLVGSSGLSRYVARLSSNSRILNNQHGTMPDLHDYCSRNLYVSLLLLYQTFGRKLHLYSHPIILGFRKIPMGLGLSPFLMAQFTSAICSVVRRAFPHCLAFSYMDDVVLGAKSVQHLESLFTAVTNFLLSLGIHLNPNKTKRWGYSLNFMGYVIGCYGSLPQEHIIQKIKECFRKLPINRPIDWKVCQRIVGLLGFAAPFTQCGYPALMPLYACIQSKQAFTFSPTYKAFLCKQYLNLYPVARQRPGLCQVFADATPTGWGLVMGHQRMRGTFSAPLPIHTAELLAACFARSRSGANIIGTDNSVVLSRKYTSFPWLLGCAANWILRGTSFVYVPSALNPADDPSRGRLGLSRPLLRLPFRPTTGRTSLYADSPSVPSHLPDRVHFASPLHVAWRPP
Procedure: (§1) Samples of serum (100 μl) were applied to a 20% w/v sucrose cushion in TNE (20 mmol/L Tris-HCl pH 7.4, 150 mmol/L NaCl2 1 mmol/L EDTA) and centrifuged at 200,000 g for 3 hr at 10° C. using an SW41 rotor in a Beckman Model L8 ultracentrifugc. The pellet was resuspended in 50 mmol/L TRIS-HCl pH 7.5 containing 1.5% v/v Triton-X100, 100 mmol/L Kcl and 0.01% v/v 2-mercaptoethanol and allowed to stand overnight at 4° C. Small aliquots of the suspension were assayed for endogenous HBV DNA polymerase activity essentially as described by Price et al (16). Each assay was performed in a total volume of 30 μl which contained 20 μl of the partly purified HBV and (final concentrations) 30 mmol/L Tris-HCl pH 7.5, 30 mmol/L MgCl2, 10 μmol/L each dATP, dTTP and dGTP, and 0.01 μM [α-^32P]-dCTP (3,000 Ci/mmol) (Dupont NEN, Boston, Mass.). To test for penciclovir triphosphate (PCV-TP) sensitivity, paired assays were performed on each sample, with an excess (100 μmol/L penciclovir-triphosphate included in the reaction mixture in one assay of each pair. After 2 hr at 37° C., reactions were stopped by spotting 20 μl aliquots of each reaction mix onto 25 mm diameter glass fibre discs (Advantex, Tokyo, Japan) which had been pre-soaked in 10% w/v trichloroacetic acid (TCA). Discs were dried before washing in ice-cold 10% w/v TCA containing 10 mmol/L sodium pyrophosphate.
(§2) Three further 10 min. washes in cold 5% v/v TCA followed. The washed discs were finally rinsed in absolute ethanol, air dried, and counted for radioactivity. Inhibition of HBV DNA polymerase activity by PCV-TP was expressed as the percentage difference in activity in the assay mix containing PCV-TP compared to the matched control. Because of limited sample amounts, it was not possible to standardize enzyme activity or to perform replicate assays. Despite the inherent variability of the assay, a general time related decrease in sensitivity of the HBV DNA polymerase to PCV-TP was evident (see Table 1).

HBV DNA polymerase [3] = test: as above; type: biochemical, Hepatitis B Virus; conditions: 100 μmol/L PCV-TP, serum HBV of patient A
Procedure: as §1, §2

HBV [4] = test: serum HBV DNA level during antiviral therapy, patient A (post-OLT); type: in vivo, Hepatitis B Virus
Text: The patient was transplanted because of end-stage liver failure due to chronic HBV infection. The initial post transplant course was unremarkable but by 5 months there was evidence of recurrent infection and very high levels of viral replication and deteriorating liver function (12). The histological picture was consistent with fibrosing cholestatic hepatitis. Antiviral treatment was commenced approximately 6 months post-OLT. Initially, the patient received intravenous (iv) ganciclovir (GCV; 10 mg/kg/day) in combination with iv foscarnet (PFF; 50-125 mg/kg/day; the dose depending on renal function) (12). This is the treatment of GCV+PFF described in FIG. 2 which lasted for 86 days. Maintenance iv GCV (3.3-6.7 mg/kg/day) three times per week was commenced on day 87 of antiviral treatment (GCV in FIG. 2). Oral famciclovir (250 mg, twice daily) was commenced on day 446 of therapy (FCV [I] in FIG. 2) which was increased to 500 mg twice daily (FCV [II] in […]) on day 500. The patient is currently on this treatment regime. The clinical and virological details of this patient preceding famciclovir therapy have been reported (12).
Serum samples were routinely collected and stored at −70° C. Informed consent was obtained from the patient to use these samples for research purposes. […] The 5 samples chosen for additional studies cover a period of almost four years.
Hepatitis B surface antigen (HbsAg), hepatitis B e antigen (HbeAg), anti-HBe, hepatitis B core antigen (HbcAg) specific IgG and IgM, hepatitis A specific IgM, hepatitis delta antigen and antibody, and anti-hepatitis C virus antibody were measured using commercially available immunoassays (Abbott Laboratories, North Chicago, Ill.). Only the HBV markers were positive. Hepatitis B viral DNA levels were measured and quantified using a capture hybridisation assay according to the manufacturer's directions (Digene Diagnostics Inc., Beltsville, Md.).
This reduction in viraemia was associated with clinical, biochemical and histological improvement (12). […] However, the level of HBV DNA gradually rose over time from 3,000 pg/ml on day 600 (154 days of famciclovir), to 8,800 pg/ml on day 816 (370 days famciclovir), peaking at 29,000 pg/ml on day 1302 (856 days of famciclovir), then stabilising at around 12,000 pg/ml on day 1329 (883 days of famciclovir). […] There was a 1.5 to 2 fold rise in ALT levels over the same time interval (FIG. 2) and no change in clinical status.

duck HBV virus = conditions: oral, in vivo; cited from earlier work
HBV [5] = conditions: in man, patient with severe hepatitis B following OLT; cited from earlier work
HBV [6] = test: response to antiviral treatment, patient C; type: in vivo, Hepatitis B Virus
Text: Patient B was undergoing long term famciclovir treatment (>850 days). The amino acid change selected during famciclovir treatment is shown as HBV (patient B) in FIG. 5. […] The HBV isolated during FCV treatment from patient C, is shown as HBV (patient C-FCV). All 3TC resistance mutations which developed during treatment with 3TC is shown as HBV (patient C-3TC). […] A mutation of Met 550 to Ile in the YMDD motif was detected from HBV isolated 32 days (333 days post treatment) after the HBV containing the Thr-Ser substitution was isolated.

Nc1nc2c(ncn2CCC(CO)CO)c(=O)[nH]1 [Peniciclovir, penciclovir]
HBV DNA polymerase-reverse transcriptase activity [1]: inhibit
activity against duck HBV DNA synthesis (duck HBV): potent inhibitory activity

penciclovir triphosphate [PCV-TP]
Inhibition of HBV DNA polymerase by PCV-TP (HBV DNA polymerase [2]; day 816 of antiviral treatment (370 days famciclovir), Val519Leu/Leu526Met): 0%
Inhibition of HBV DNA polymerase by PCV-TP (HBV DNA polymerase [2]; day 1329 of antiviral treatment (883 days famciclovir)): 0%
Inhibition of HBV DNA polymerase by PCV-TP (HBV DNA polymerase [3]; day 600 of antiviral treatment (154 days famciclovir)): 30%
Inhibition of HBV DNA polymerase by PCV-TP (HBV DNA polymerase [3]; pretreatment sample): 40%

Nc1nc(O)c2ncn(COC(CO)CO)c2n1 [GCV, ganciclovir]
levels of HBV DNA (HBV [4]; maintenance iv GCV from day 87, over 359 days): fluctuating levels of HBV DNA

CC(=O)OCC(CCn1cnc2cnc(N)nc21)COC(C)=O [famciclovir]
intra-hepatic replication of duck HBV virus (duck HBV virus): inhibit
HBV DNA replication (HBV [5]): reduce HBV DNA replication
level of HBV DNA (HBV [4]; day 600 (154 days of famciclovir)): 3,000 pg/ml
level of HBV DNA (HBV [4]; day 816 (370 days famciclovir)): 8,800 pg/ml
level of HBV DNA (HBV [4]; day 1302 (856 days of famciclovir), peak): 29,000 pg/ml
level of HBV DNA (HBV [4]; day 1329 (883 days of famciclovir)): around 12,000 pg/ml
HBV DNA change (HBV [4]; dose increase to 500 mg twice daily on day 500 (FCV[II])): decrease in HBV DNA
HBV DNA change (HBV [4]; switch to oral famciclovir 250 mg twice daily on day 446 (FCV[I])): rise in HBV DNA
response to treatment (HBV [6]): did not respond
